{"source": "patent US20050020519A1", "about": "“Modulation of insulin-regulated aminopeptidase (irap)/angiotensin iv (at4) receptor activity” (priority 2001, published 2005)", "molecules": {"B1": {"name": "LVV-hemorphin 7 (LVVYPWTQRF) (peptide)", "peptide": "LVVYPWTQRF", "notes": "Globin fragment purified from sheep cerebral cortex; synthetic peptide used in the assays; also called LVV-H7; LV-H7"}}, "key": {"ERK1/2 phosphorylation [1]": {"test_system": "ERK1/2 phosphorylation", "experiment": "ERK1/2 phosphorylation in rat hippocampal slices (Western blot)", "assay_type": "cell-based", "conditions": "10^−8M, 30 min", "protocol": "The potential of IRAP/AT4 ligands to activate MAPK or CREB was initially investigated on rat hippocampal slices. Rats were killed by decapitation and the hippocampi removed, four hundred μm thick slices cut and incubated in aCSF. […] Slices were then lysed in 200 μl of ice-cold lysis buffer (10 mM Tris-HCl pH 7.5, 50 mM NaCl, 1% triton X-100, 30 mM sodium pyrophosphate, 50 mM NaF, 5 μM ZnCl2, 0.1 mM sodium orthovanadate, 1 mM DTT, 5 nM okadaic acid, 1×Boehringer Protease inhibitor cocktail) and centrifuged at full speed. The lysates were then heated at 95° C. for 10 min in 6×SDS loading buffer and the proteins (30 μg per lane) resolved on 7.5% SDS-poylacrylamide gels. After transfer of proteins to PVDF membranes, blots were probed overnight at 4° C. with anti phospho-p44/42 MAP kinase (Thr202/Tyr204) antibody and detected by chemiluminescence using ECL blotting detection reagents and a Fuji LAS-1000."}, "ERK1/2 phosphorylation [2]": {"test_system": "ERK1/2 phosphorylation", "method": "The ability of AT4 ligands to stimiuladte MAPK phosphorylation directly was investigated in HEK293 cells transfected with human IRAP. HEK293 cells were transfected with pCI-IRAP or with empty vector, plated on to 12-well plates at a density of 60,000 cells/well and grown in complete medium containing 0.2% fetal calf serum. […] The proteins were then transferred on to nitrocellulose membranes and incubated with phospho-MAPK (p44/42) antibodies and visualised with HRP-conjugated secondary antibody, using the ECL-plus western blot detection system."}, "rats [3]": {"test_system": "rats", "conditions": "cited from earlier work"}, "3T3L1 cells": {"test_system": "3T3L1 cells", "experiment": "2-deoxyglucose uptake in differentiated 3T3L1 adipocytes", "conditions": "for basal glucose uptake: no insulin, untreated 3.3±0.67", "method": "The effect of IRAP inhibitors on the regulation of glucose uptake was determined in 3T3L1 cells. 3T3L1 fibroblasts were differentiated by the addition of DMEM containing 5% fetal calf serum, 4 μg/ml insulin, 0.25 mM dexamethasone and 0.5 mM 3-isobutyl-1-methyl-xanthine. […] The reaction was stopped after 10 min by washing the cells in PBS. The cells were then solubilized in 0.5 N NaOH and counted."}, "rat hippocampal slices": {"test_system": "rat hippocampal slices", "experiment": "Potassium-evoked ^3H-choline release from rat hippocampal slices", "assay_type": "cell-based", "conditions": "at 10^−7M", "protocol": "To determine the effect of IRAP inhibitors an acetylcholine release for rat hippocampal slices in vitro, rats were anaesthetized with sodium pentobarbitone, decapitated and the brain rapidly extracted and put on ice. The two sides of the hippocampus were then dissected, and stored in Krebs buffer on ice. The tissues were sectioned into 400 μm slices using a McI1wain slicer, and incubated with 10 μM of ^3H-choline in Krebs buffer for 20 min at 37° C. Following the incubation, the sections were transferred to Brandel superfusion chambers filled with carbogenated Krebs buffer, pH7.0 containing […] hemicholinium HC-3 to prevent choline reuptake. The slices were washed for 60 min at 37° C. with Krebs buffer at a flow rate of 500 μl/min. Superfusate samples were collected at 5 min intervals for the duration of the experiment. After a stable baseline was established, the hippocampal slices were depolarised by the addition of 30 mM KCl to the Krebs buffer and infused for 4 min (stimulation period S1). The tissue was then allowed to recover for 25 min before the next stimulation period (S2). To test the effect of […] […] Fractional ^3H-choline release, expressed as a ratio of S2/S1, was then calculated for each of the different peptides at the different doses."}, "NG108-15 cells": {"test_system": "NG108-15 cells", "experiment": "^3H-thymidine incorporation in NG108-15 cells", "assay_type": "cell-based, rat-mouse hybrid", "protocol": "(§1) NG108-15 and SK-N-MC cells were cultured in DMEM supplemented with 10% heat-inactivated FCS, 2% HAT supplement, and 100 U/ml penicillin/streptomycin. Cells were routinely used between passages 20 and 30.\n(§2) Cells were plated at a density of 3×10^4 cells/well in 24 well Falcon plates that had been coated with 0.1 mg/ml poly-L-lysine hydrobromide. The cells were allowed to adhere overnight, and then serum deprived for 48 h before being treated with […] (SEQ ID NO:2) and/or Ang IV (10^−10 to 10^−6 M) for 24 h in medium with or without serum. Five hours before the end of the experiment 1 μCi of ^3H-thymidine was added to each well. At the completion of the incubation, cells were washed twice with 1 ml of PBS at 4° C., followed by 5% trichloroacetic acid at 4° C. for 30 min, which was aspirated before solubilizing the cells in 1 ml 0.25 M NaOH and 0.1% SDS for 30 min at 37° C. Samples were then collected into 5 ml of Ready Value scintillation fluid and ^3H measured in a liquid scintillation counter."}, "SK-N-MC cells": {"test_system": "SK-N-MC cells", "experiment": "[^3H]-thymidine uptake in SK-N-MC cells", "assay_type": "cell-based", "conditions": "Ang IV 10^−10-10^−7 M; LVVYPWTQRF 10^−10-10^−6 M", "protocol": "as §1, §2"}, "[4]": {"conditions": "conditions similar to the DNA synthesis experiments"}, "rats [5]": {"test_system": "rats", "conditions": "intracerebroventricular dose 1 nmol; cited from earlier work"}, "[6]": {"biological_target": "T1, human insulin-regulated aminopeptidase (IRAP) / angiotensin IV (AT4) receptor (human, UniProt Q9UIQ6 1-1025)", "T1 sequence (Q9UIQ6 whole entry)": "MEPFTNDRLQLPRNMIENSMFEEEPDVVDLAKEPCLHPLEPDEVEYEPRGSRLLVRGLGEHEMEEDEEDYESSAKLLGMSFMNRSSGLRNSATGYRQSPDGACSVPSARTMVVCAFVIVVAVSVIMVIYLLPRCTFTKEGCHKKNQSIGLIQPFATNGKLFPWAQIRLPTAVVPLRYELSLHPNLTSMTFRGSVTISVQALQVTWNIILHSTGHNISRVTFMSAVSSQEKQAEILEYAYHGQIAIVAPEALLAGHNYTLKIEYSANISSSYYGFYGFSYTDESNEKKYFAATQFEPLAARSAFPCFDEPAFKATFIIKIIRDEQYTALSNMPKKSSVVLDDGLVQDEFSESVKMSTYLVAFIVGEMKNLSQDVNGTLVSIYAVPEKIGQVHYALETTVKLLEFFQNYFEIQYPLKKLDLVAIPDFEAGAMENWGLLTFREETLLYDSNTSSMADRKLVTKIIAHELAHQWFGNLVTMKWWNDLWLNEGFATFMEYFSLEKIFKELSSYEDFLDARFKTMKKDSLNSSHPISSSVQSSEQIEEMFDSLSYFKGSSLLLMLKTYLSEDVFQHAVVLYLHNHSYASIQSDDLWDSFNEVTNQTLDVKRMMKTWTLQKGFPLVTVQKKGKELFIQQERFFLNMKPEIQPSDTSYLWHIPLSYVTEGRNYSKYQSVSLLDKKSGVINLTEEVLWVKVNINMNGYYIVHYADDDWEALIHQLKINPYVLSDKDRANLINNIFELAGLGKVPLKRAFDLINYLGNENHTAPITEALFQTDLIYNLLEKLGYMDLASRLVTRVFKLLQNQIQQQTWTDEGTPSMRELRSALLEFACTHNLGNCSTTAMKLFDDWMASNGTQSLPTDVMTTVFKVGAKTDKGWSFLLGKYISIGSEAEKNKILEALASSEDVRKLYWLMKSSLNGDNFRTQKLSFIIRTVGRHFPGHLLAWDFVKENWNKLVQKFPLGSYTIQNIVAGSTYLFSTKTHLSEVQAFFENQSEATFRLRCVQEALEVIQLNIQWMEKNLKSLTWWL", "experiment": "cell-based or functional assay"}, "[7]": {"biological_target": "T1, human insulin-regulated aminopeptidase …", "experiment": "radioligand displacement of 125I-Nle-Ang IV"}, "[8]": {"biological_target": "T1, human insulin-regulated aminopeptidase …", "experiment": "competitive inhibition of L-leucine-β-naphthylamide cleavage by solubilised membranes of IRAP-transfected HEK 293 cells; Ki from IC50=Ki(1+[S]/Km)"}}, "note": "Read-outs that look alike come from different tables or passages of the source. Where a SMILES comes first, the peptide text is derived from it.", "data": [{"molecule": "CCCC[C@H](N)C(=O)N[C@@H](Cc1ccc(O)cc1)C(=O)N[C@H](C(=O)N[C@@H](Cc1c[nH]cn1)C(=O)N1CCC[C@H]1C(=O)N[C@@H](Cc1ccccc1)C(=O)O)[C@@H](C)CC", "note": "[Nle^1-Ang IV, Nle′-YIHPF] (HELM PEPTIDE1{[Nle].Y.I.H.P.F}$$$$V2.0; N-terminus and C-terminus assumed)", "values": [{"measurement": "ERK1/2 phosphorylation", "setting": "ERK1/2 phosphorylation [1]", "result": "induced phosphorylation of ERK1/2"}, {"measurement": "ERK1/2 phosphorylation", "setting": "ERK1/2 phosphorylation [2]", "result": "induced the phosphorylation of ERK1/2"}, {"measurement": "performance in the swim maze task", "setting": "rats [3]; chronic infusion (6 days), 0.1 to 0.5 nmol/h, lateral ventricle", "result": "enhanced performance"}, {"measurement": "memory deficits induced by scopolamine", "setting": "rats [3]; given acutely into the lateral ventricles", "result": "reversed the memory deficits"}, {"measurement": "insulin-stimulated glucose uptake", "setting": "3T3L1 cells; 10^−6 M peptide with 0.7 nM insulin", "result": "18.3 ± 2.39", "unit": "pmol/min/well"}, {"measurement": "insulin-stimulated glucose uptake", "setting": "3T3L1 cells; 10^−6 M peptide with 70 nM insulin", "result": "23.02 ± 1.52", "unit": "pmol/min/well"}, {"measurement": "basal glucose uptake", "setting": "3T3L1 cells; 10^−6 M", "result": "7.6±1.21", "unit": "pmol/min/well"}, {"measurement": "insulin-stimulated glucose uptake", "setting": "3T3L1 cells; 10^−7 M peptide with 0.7 nM insulin", "result": "12.2 ± 2.29", "unit": "pmol/min/well"}, {"measurement": "insulin-stimulated glucose uptake", "setting": "3T3L1 cells; 10^−7 M peptide with 70 nM insulin", "result": "22.99 ± 2.8", "unit": "pmol/min/well"}, {"measurement": "basal glucose uptake", "setting": "3T3L1 cells; 10^−7 M", "result": "7.2±1.79", "unit": "pmol/min/well"}, {"measurement": "increase of basal glucose uptake", "setting": "3T3L1 cells; both concentrations (10^−7 and 10^−6 M)", "result": "two-fold"}]}, {"molecule": "CC[C@H](C)[C@H](NC(=O)[C@H](Cc1ccc(O)cc1)NC(=O)[C@@H](N)C(C)C)C(=O)N[C@@H](Cc1cnc[nH]1)C(=O)N1CCC[C@H]1C(=O)N[C@@H](Cc1ccccc1)C(=O)O", "note": "[Ang IV, VYIHPF]", "values": [{"measurement": "maximum effect on potassium-evoked ^3H-choline release", "setting": "rat hippocampal slices", "result": "150 % of control"}, {"measurement": "stimulation of DNA synthesis", "setting": "NG108-15 cells; 10^−10 to 10^−6 M, alone", "result": "did not stimulate DNA synthesis"}, {"measurement": "effect on LVVYPWTQRF-stimulated ^3H-thymidine incorporation", "setting": "NG108-15 cells; concomitant 10^−6 M Ang IV", "result": "completely abolished"}, {"measurement": "increase of [^3H]-thymidine uptake", "setting": "SK-N-MC cells", "result": "up to 72 % above control levels"}, {"measurement": "degradation of the peptide", "setting": "[4]", "result": "some degradation"}, {"measurement": "latency in re-entering the dark chamber after an aversive stimulus", "setting": "rats [5]", "result": "increased the latency"}]}, {"molecule": "B1", "values": [{"measurement": "IC50 inhibition leucine β-naphthylamide", "setting": "[6]", "result": 1500, "unit": "nM"}, {"measurement": "IC50", "setting": "[7]", "result": 140, "unit": "nM"}, {"measurement": "Ki", "setting": "[8]", "result": 845, "unit": "nM"}]}]}
